Assays:
[1] = system: 2HG of fibrosarcoma cell line HT1080 expressing IDH1 mutant IDH1-R132C; experiment: Inhibition of 2HG of fibrosarcoma cell line HT1080; assay type: cell-based; conditions: Homo sapiens, HT-1080; HT1080 cells, 48 hours with compound, 2HG in cell supernatant; read-out: HT1080 2HG inhibitory IC50
Protocol: In this experiment, the inhibitory activity of the compound of the disclosure on the concentration level of 2HG of the fibrosarcoma cell line HT1080 was determined by the following method.
The cells were digested with trypsin and inoculated into a 24 well cell culture plate with a density of 10000 cells/well. The cells were cultured in a 5% CO2 cell incubator at 37° C. After overnight culture, the test compound was added to the cells. The final concentration of DMSO was 0.1%, and DMSO was used as control. The plate was then placed in a cell incubator and cultured for 48 hours.
Detection of 2HG: 2-HG was measured by PicoProbe™ D-2-Hydroxyglutarate (D2HG) Assay Kit of BioVision. 500 uL cell supernatant was taken from each well and added to a 10 kD centrifuge column, 12000 g, and centrifuged for 10 minutes to remove the effect of enzyme activity. […] IC50 value was calculated by GraphPad Prism software.
The inhibition rate of the sample was obtained by the following formula: […]
IC50 value was calculated by GraphPad Prism software.

IDH1 R132C = IDH1 R132C (Homo sapiens, UniProt O75874, R132C); experiment: Effect on IDH1 R132C enzyme activity (NADPH consumption, diaphorase/resazurin fluorescence); assay type: biochemical; conditions: 80 ng IDH1 R132C, α-KG 2 mM, NADPH 20 μM, 60 min preincubation
Protocol: (§1) Test method: The enzyme activity of IDH1 converting α-KG to 2HG was measured by the consumption of NADPH. After the enzymatic reaction finished, the amount of residual NADPH can be reflected by fluorescence signal generated by the addition of catalytically excessive diphhorase and reazurin.
(§2) 50 μL mixed liquid of substrate α-KG and NADPH (final concentration of substrate α-KG was 2 mM, final concentration of NADPH was 20 μM), and the plate was incubated in dark for 60 min at room temperature. Detection reaction: 50 μL 1×detection buffer diluted 0.01 unit diabase and 30 μM resazurin were added into each well, and the mixture was incubated in dark at room temperature for 10 min. […] IC50 value was calculated by GraphPad Prism software.

IDH1 R132H = IDH1 R132H (Homo sapiens, UniProt O75874, R132H); experiment: Effect on IDH1 R132H enzyme activity (NADPH consumption, diaphorase/resazurin fluorescence); assay type: biochemical; conditions: 100 ng IDH1 R132H, α-KG 1 mM, NADPH 20 μM, 60 min preincubation
Protocol: as §1
as §2, with “α-KG was 1 mM, final” for “α-KG was 2 mM, final”, “and the mixture was incubated” for “and the plate was incubated”

IDH1 R132H, sequence (O75874 whole entry R132H): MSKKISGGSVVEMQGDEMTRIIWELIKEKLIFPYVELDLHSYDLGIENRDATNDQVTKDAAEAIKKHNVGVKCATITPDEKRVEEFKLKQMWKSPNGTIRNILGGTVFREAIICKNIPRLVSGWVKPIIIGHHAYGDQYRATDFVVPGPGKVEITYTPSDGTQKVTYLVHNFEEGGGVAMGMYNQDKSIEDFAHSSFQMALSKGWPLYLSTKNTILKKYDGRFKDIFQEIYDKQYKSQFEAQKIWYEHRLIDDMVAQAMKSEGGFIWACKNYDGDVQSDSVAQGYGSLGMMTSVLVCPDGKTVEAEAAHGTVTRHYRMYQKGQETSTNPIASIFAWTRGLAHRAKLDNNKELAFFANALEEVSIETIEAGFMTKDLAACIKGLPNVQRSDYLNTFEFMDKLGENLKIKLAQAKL
IDH1 R132C, sequence (O75874 whole entry R132C): as the sequence (O75874 whole entry R132H) above, with H132C counted along it

IC50 [1] [nM]	IC50 (IDH1 R132C) [nM]	IC50 (IDH1 R132H) [nM]	Compound
25	–	–	N#Cc1ccnc(N2C(=O)CC[C@H]2C(=O)N(c2cncc(F)c2)[C@H](C(=O)NC2CC(F)(F)C2)c2ccccc2Cl)c1 [AG120, reference compound]
60	< 50	< 50	C[C@H](Nc1nccc(N2C(=O)OC[C@@H]2[C@H](C)F)n1)c1ncn2c1COc1cc(Cl)ccc1-2 [Compound 1, (R)-3-(2-((S)-1-(7-chloro-4H-benzo[b]imidazo[1,5-d][1,4]oxazin-3-yl)ethylamino)pyrimidin-4-yl)-4-((S)-1-fluoroethyl)oxazolidin-2-one]
12	< 50	< 50	C[C@H](Nc1nccc(N2C(=O)OC[C@@H]2[C@H](C)F)n1)c1ncn2c1COc1cc(C(F)(F)F)ccc1-2 [Compound 2, (R)-4-((S)-1-fluoroethyl)-3-(2-(((S)-1-(7-trifluoromethyl-4H-benzo[b]imidazo[1,5-d][1,4]oxazin-3-yl)ethyl)amino)pyrimidin-4-yl)oxazolidin-2-one]
13	< 50	< 50	CC(C)[C@H]1COC(=O)N1c1ccnc(N[C@@H](C)c2ncn3c2CCc2cc(C(F)(F)F)ccc2-3)n1 [Compound 3, (S)-4-isopropyl-3-(2-(((S)-1-(7-trifluoromethyl-4,5-dihydroimidazo[1,5-a]quinolin-3-yl)ethyl)amino)pyrimidin-4-yl)oxazolidin-2-one]
54	< 50	< 50	C[C@H](Nc1nccc(N2C(=O)OC[C@@H]2[C@H](C)F)n1)c1ncn2c1CCc1cc(Cl)ccc1-2 [Compound 4, (R)-3-(2-(((S)-1-(7-chloro-4,5-dihydroimidazo[1,5-a]quinolin-3-yl)ethyl)amino)pyrimidin-4-yl)-4-((S)-1-fluoroethyl)oxazolidin-2-one]
16	< 50	< 50	C[C@H](Nc1nccc(N2C(=O)OC[C@@H]2[C@H](C)F)n1)c1ncn2c1CCc1cc(C(F)(F)F)ccc1-2 [Compound 5, (R)-4-((S)-1-fluoroethyl)-3-(2-(((S)-1-(7-trifluoromethyl-4,5-dihydroimidazo[1,5-a]quinolin-3-yl)ethyl)amino)pyrimidin-4-yl)oxazolidin-2-one]
20	< 50	< 50	C[C@H](Nc1ncc(F)c(N2C(=O)OC[C@@H]2[C@H](C)F)n1)c1ncn2c1CCc1cc(C(F)(F)F)ccc1-2 [Compound 6, (R)-3-(5-fluoro-2-(((S)-1-(7-trifluoromethyl-4,5-dihydroimidazo[1,5-a]quinolin-3-yl)ethyl)amino)pyrimidin-4-yl)-4-((S)-1-fluoroethyl)oxazolidin-2-one]
35	< 50	< 50	C[C@H](Nc1nc(Cl)cc(N2C(=O)OC[C@@H]2[C@H](C)F)n1)c1ncn2c1CCc1cc(C(F)(F)F)ccc1-2 [Compound 7, (R)-3-(6-chloro-2-(((S)-1-(7-trifluoromethyl-4,5-dihydroimidazo[1,5-a]quinolin-3-yl)ethyl)amino)pyrimidin-4-yl)-4-((S)-1-fluoroethyl)oxazolidin-2-one]
10	< 50	< 50	C[C@H](Nc1nccc(N2C(=O)OC[C@@H]2[C@H](C)F)n1)c1ncn2c1sc1cc(C(F)(F)F)ccc12 [Compound 8, (R)-4-((S)-1-fluoroethyl)-3-(2-(((S)-1-(6-trifluoromethylbenzo[d]imidazo[5,1-b]thiazol-3-yl)ethyl)amino)pyrimidin-4-yl)oxazolidin-2-one]
45	< 50	50 to 500	CC(C)[C@H]1COC(=O)N1c1ccnc(N[C@@H](C)c2ncn3c2CCCc2cc(C(F)(F)F)ccc2-3)n1 [Compound 9, (S)-4-isopropyl-3-(2-(((S)-1-(8-trifluoromethyl-5,6-dihydro-4H-benzo[f]imidazo[1,5-a]azepin-3-yl)ethyl)amino)pyrimidin-4-yl)oxazolidin-2-one]
–	50 to 500	50 to 500	CC1Cc2c([C@H](C)Nc3nccc(N4C(=O)OC[C@@H]4[C@H](C)F)n3)ncn2-c2ccc(C(F)(F)F)cc21 (stereo partly drawn) [Compound 10, (4R)-4-((S)-1-fluoroethyl)-3-(2-(((1S)-1-(5-methyl-7-trifluoromethyl-4,5-dihydroimidazo[1,5-a]quinolin-3-yl)ethyl)amino)pyrimidin-4-yl)oxazolidin-2-one]
–	< 50	50 to 500	C[C@H](Nc1nccc(N2C(=O)OC[C@@H]2[C@H](C)F)n1)c1ncn2c1CCc1cc(F)ccc1-2 [Compound 11]
24	< 50	< 50	CC(C)[C@H]1COC(=O)N1c1ccnc(N[C@@H](C)c2ncn3c2CSc2cc(C(F)(F)F)ccc2-3)n1 [Compound 12, (S)-4-isopropyl-3-(2-(((S)-1-(7-trifluoromethyl-4H-benzo[b]imidazo[1,5-d][1,4]thiazin-3-yl)ethyl)amino)pyrimidin-4-yl)oxazolidin-2-one]
35	< 50	< 50	C[C@H](Nc1nccc(N2C(=O)OC[C@@H]2[C@H](C)F)n1)c1ncn2c1CCCc1cc(C(F)(F)F)ccc1-2 [Compound 13, (R)-4-((S)-1-fluoroethyl)-3-(2-(((S)-1-(8-trifluoromethyl-5,6-dihydro-4H-benzo[f]imidazo[1,5-a]azepin-3-yl)ethyl)amino)pyrimidin-4-yl)oxazolidin-2-one]
–	50 to 500	50 to 500	CC1Cc2cc(C(F)(F)F)ccc2-n2cnc([C@H](C)Nc3nccc(N4C(=O)OC[C@@H]4[C@H](C)F)n3)c21 (stereo partly drawn) [Compound 14, (4R)-4-((S)-1-fluoroethyl)-3-(2-(((1S)-1-(4-methyl-7-trifluoromethyl-4,5-dihydroimidazo[1,5-a]quinolin-3-yl)ethyl)amino)pyrimidin-4-yl)oxazolidin-2-one]
–	50 to 500	50 to 500	CC1Oc2cc(C(F)(F)F)ccc2-n2cnc([C@H](C)Nc3nccc(N4C(=O)OC[C@@H]4[C@H](C)F)n3)c21 (stereo partly drawn) [Compound 15, (4R)-4-((S)-1-fluoroethyl)-3-(2-(((1S)-1-(4-methyl-7-trifluoromethyl-4H-benzo[b]imidazo[1,5-d][1,4]oxazin-3-yl)ethyl)amino)pyrimidin-4-yl)oxazolidin-2-one]
–	> 500	> 500	C[C@H](Nc1nccc(N2CC3(CC3)OC2=O)n1)c1ncn2c1CCc1cc(C(F)(F)F)ccc1-2 [Compound 19, (S)-6-(2-((1-(7-trifluoromethyl-4,5-dihydroimidazo[1,5-a]quinolin-3-yl)ethyl)amino)pyrimidin-4-yl)-4-oxa-6-azaspiro[2.4]heptan-5-one]
–	< 50	< 50	C[C@H](Nc1nccc(N2C(=O)OC[C@@H]2[C@H](C)F)n1)c1ncn2c1COc1cc(F)ccc1-2 [Compound 24, (R)-3-(2-(((S)-1-(7-fluoro-4H-benzo[b]imidazo[1,5-d][1,4]oxazin-3-yl)ethyl)amino)pyrimidin-4-yl)-4-((S)-1-fluoroethyl)oxazolidin-2-one]
–	50 to 500	50 to 500	COc1ccc2c(c1)OCc1c([C@H](C)Nc3nccc(N4C(=O)OC[C@@H]4[C@H](C)F)n3)ncn1-2 [Compound 25, (R)-4-((S)-1-fluoroethyl)-3-(2-(((S)-1-(7-methoxy-4H-benzo[b]imidazo[1,5-d][1,4]oxazin-3-yl)ethyl)amino)pyrimidin-4-yl)oxazolidin-2-one]
–	50 to 500	50 to 500	C[C@H](Nc1nccc(N2C(=O)OC[C@@H]2[C@H](C)F)n1)c1ncn2c1COc1cc(C#N)ccc1-2 [Compound 27, 3-((S)-1-((4-((R)-4-((S)-1-fluoroethyl)-2-oxyoxazolidin-3-yl)pyrimidin-2-yl)amino)ethyl)-4H-benzo[b]imidazo[1,5-d][1,4]oxazin-7-nitrile]
–	50 to 500	< 50	C[C@H](Nc1nccc(N2C(=O)OC[C@@H]2[C@H](C)F)n1)c1ncn2c1CCc1c(Cl)cccc1-2 [Compound 29, (R)-3-(2-(((S)-1-(6-chloro-4,5-dihydroimidazo[1,5-a]quinolin-3-yl)ethyl)amino)pyrimidin-4-yl)-4-((S)-1-fluoroethyl)oxazolidin-2-one]

Source: patent publication US20210253595A1, “2-Aminopyrimidine Derivative and Preparation Method and Use Thereof” (Etern Biopharma (Shanghai) Co., Ltd., priority 2018, published 2021)
